Literature values, collected in US20050255458A1, “Drug discovery assays based on the biology of chronic disease” (priority 2002, published 2005).
Read-outs that look alike come from different tables or passages of the source.

Assays:
ERK1 and ERK2 = conditions: 20 μm, 15 min; cited from earlier work
DC = conditions: inhaled; cited from earlier work
[1] = system: ‘Langerhans’ cells in nasal mucosa; conditions: topical; cited from earlier work
NF-κB = conditions: cited from earlier work
[2] = system: third intron enhancer of the TNFα gene; conditions: PBMC stimulated with TPA; cited from earlier work
ERK1/2 = conditions: cited studies, various cells; cited from earlier work
[3] = system: ML-1 human myeloblastic leukemic cells; conditions: cited from earlier work; for increase in ERK activity: 0.3 ng/ml
anagen hair follicles = conditions: cited from earlier work
ERK [4] = conditions: cited from earlier work
ERK [5] = conditions: LNCaP; cited from earlier work
AR gene [6] = conditions: cited from earlier work
[7] = 0.3-0.5 mmol/kg/day, from day 56; cited from earlier work
[8] = system: Moloney murine leukemia virus (MMuLV); conditions: cited from earlier work
Rous sarcoma virus (RSV) = conditions: cited from earlier work
TF = conditions: cited from earlier work
AR gene [9] = conditions: 50 μg/ml, 4 hours, 21-day-old rats; cited from earlier work
TF antigen = conditions: cited from earlier work
ACE [10] = biological target: T1, ACE (Mus musculus, UniProt P09470); conditions: zofenopril 0.05 or 1, captopril 5, enalapril 0.5 mg/kg/day; 29 weeks; cited from earlier work
T1 sequence (P09470 35-1312): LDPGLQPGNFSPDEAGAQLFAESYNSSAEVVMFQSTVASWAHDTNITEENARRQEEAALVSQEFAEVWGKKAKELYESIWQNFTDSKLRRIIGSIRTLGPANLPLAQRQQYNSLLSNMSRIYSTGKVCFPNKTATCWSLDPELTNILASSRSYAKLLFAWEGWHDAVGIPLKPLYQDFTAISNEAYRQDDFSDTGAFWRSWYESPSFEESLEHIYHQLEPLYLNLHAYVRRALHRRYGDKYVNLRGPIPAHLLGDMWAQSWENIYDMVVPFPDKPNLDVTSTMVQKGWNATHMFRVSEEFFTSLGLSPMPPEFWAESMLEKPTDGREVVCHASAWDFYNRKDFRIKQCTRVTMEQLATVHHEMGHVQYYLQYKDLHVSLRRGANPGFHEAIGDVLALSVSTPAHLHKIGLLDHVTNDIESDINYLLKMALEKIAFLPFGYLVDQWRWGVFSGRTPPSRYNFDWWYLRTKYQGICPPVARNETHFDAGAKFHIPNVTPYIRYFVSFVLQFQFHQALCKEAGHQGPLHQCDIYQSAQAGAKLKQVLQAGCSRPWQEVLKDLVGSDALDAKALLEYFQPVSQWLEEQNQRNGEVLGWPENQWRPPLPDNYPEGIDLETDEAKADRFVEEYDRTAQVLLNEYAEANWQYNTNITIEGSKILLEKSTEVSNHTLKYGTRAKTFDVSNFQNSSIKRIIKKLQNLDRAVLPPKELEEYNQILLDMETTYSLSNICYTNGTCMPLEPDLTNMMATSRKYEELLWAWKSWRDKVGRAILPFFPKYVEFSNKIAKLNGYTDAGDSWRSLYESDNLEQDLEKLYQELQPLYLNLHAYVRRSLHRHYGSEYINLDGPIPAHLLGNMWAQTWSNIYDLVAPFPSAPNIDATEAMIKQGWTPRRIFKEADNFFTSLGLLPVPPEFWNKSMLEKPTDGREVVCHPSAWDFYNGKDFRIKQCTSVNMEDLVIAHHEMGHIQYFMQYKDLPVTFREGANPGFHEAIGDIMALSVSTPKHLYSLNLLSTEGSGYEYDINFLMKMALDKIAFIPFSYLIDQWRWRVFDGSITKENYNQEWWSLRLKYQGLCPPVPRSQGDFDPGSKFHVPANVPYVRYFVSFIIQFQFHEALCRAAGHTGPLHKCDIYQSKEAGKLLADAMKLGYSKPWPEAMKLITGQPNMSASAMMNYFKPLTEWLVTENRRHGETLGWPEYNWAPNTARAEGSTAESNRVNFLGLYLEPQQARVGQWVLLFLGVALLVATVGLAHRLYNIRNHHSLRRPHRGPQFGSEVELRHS

ACE [11] = biological target: ACE (Homo sapiens, UniProt P12821); set-up: randomly assigned 9,297 high-risk patients; from tissue; host or cells: patients, in vivo; conditions: 5 mg/day, vs placebo; cited from earlier work
ACE (Homo sapiens, UniProt P12821), sequence (P12821 30-1306): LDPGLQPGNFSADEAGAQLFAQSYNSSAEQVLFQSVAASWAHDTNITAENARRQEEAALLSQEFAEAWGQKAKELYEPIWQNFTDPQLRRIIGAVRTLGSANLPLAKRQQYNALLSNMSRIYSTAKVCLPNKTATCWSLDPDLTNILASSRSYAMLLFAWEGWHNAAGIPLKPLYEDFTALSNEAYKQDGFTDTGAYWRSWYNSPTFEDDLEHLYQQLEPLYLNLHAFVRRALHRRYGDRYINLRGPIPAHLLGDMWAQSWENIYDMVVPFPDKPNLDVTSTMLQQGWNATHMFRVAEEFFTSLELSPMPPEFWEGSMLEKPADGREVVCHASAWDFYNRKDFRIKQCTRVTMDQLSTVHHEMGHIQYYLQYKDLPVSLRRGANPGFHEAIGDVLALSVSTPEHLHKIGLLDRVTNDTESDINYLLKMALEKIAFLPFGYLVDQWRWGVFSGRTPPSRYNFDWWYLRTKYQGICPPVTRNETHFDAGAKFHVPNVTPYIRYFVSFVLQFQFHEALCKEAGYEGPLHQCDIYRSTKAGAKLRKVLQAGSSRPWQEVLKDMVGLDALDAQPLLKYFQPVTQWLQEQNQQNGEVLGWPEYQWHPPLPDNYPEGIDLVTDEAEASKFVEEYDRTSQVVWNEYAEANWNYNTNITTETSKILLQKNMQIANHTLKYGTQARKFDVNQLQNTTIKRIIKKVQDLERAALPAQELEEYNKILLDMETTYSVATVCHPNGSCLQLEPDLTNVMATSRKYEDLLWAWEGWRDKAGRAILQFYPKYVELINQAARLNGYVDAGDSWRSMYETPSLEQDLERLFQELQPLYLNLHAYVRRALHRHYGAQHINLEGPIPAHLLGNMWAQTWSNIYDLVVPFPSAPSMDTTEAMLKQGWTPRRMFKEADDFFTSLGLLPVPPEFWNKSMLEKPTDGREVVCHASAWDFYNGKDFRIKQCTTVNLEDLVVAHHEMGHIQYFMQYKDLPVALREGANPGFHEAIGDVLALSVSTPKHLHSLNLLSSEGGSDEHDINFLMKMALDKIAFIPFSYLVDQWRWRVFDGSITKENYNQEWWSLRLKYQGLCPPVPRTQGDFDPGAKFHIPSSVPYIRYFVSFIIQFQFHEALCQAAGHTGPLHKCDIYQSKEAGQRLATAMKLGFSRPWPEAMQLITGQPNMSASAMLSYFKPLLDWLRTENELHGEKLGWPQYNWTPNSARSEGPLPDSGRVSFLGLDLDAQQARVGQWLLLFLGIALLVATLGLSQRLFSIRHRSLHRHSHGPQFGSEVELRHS

[12] = system: LS 174T colon cancer cells; conditions: after the fourth day of treatment; cited from earlier work
metallothionein (MT) [13] = conditions: non-transformed hepatocytes; cited from earlier work
metallothionein (MT) [14] = conditions: cited from earlier work
metallothionein (MT) [15] = conditions: cited from earlier work; remark: listed apart in the source
[16] = obese Zucker rats; cited from earlier work
PFK-2/FBPase-2 = conditions: diabetic animals, up to 15 days; cited from earlier work
[17] = system: genetically obese ob/ob or db/db mice; conditions: low dose injection, for several hours; cited from earlier work
[18] = system: obese (fa/fa) Zucker rats; conditions: chronic ICV microinjection; cited from earlier work
[19] = biological target: T2, long form leptin receptor (Rattus norvegicus, UniProt Q62959); conditions: CHO cells; cited from earlier work
T2 construct: expressed in transfected cells; host or cells: Chinese hamster ovary (CHO) cells
T2 sequence (Q62959 22-1162): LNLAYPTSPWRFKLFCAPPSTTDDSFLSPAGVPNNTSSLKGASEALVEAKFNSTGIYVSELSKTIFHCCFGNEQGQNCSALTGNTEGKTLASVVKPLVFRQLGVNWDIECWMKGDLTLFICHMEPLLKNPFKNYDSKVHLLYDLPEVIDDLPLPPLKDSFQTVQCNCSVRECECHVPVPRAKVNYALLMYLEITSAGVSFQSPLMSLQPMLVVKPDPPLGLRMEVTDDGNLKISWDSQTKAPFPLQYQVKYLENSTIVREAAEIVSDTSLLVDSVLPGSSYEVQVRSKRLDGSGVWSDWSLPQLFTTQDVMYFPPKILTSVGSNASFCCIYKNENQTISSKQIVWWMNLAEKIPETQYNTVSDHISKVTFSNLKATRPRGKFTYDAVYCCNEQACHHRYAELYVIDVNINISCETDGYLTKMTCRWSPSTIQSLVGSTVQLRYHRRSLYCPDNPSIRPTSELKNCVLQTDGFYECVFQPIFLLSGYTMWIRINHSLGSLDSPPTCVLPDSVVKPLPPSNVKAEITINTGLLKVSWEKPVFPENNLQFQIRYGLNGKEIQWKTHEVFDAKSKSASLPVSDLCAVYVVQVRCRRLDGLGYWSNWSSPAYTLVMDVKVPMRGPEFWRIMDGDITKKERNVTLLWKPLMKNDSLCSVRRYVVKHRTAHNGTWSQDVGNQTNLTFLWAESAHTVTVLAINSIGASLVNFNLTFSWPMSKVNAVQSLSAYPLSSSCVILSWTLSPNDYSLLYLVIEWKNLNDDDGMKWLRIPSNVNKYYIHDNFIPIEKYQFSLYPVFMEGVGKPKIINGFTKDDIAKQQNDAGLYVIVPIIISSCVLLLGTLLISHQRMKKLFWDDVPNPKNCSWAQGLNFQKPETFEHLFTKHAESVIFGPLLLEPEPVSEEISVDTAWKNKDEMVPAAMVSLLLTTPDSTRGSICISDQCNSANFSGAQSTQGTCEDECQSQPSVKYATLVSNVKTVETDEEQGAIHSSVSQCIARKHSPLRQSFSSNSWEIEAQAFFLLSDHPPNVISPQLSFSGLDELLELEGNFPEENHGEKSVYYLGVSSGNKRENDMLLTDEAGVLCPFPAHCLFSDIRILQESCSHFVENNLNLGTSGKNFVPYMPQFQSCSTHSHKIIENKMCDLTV

PTP1B = PTP1B (Homo sapiens, UniProt P18031); conditions: Huyer 1997; cited from earlier work
PTP1B, sequence (P18031 whole entry, species assumed): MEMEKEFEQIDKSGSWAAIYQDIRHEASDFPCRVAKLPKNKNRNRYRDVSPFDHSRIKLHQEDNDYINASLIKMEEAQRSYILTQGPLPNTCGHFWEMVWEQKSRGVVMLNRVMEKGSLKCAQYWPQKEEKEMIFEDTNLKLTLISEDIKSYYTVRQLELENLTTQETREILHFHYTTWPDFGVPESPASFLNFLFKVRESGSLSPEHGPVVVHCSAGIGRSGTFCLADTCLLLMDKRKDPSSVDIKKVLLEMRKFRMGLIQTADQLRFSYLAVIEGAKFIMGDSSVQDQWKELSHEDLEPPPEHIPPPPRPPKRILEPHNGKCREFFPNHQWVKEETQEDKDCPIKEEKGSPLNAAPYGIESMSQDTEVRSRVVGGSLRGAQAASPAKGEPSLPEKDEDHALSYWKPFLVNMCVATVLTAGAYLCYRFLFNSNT

CCCCCC1OC1CC=CCC=CCC=CCCCC(=O)O (stereo not shown) [14,15-EET, 14,15-epoxyeicosatrienoic acid]
ERK1 and ERK2 phosphorylation (ERK1 and ERK2): stimulated ERK1 and ERK2 phosphorylation

CCC(=O)O[C@]1(C(=O)SCF)[C@H](C)C[C@H]2[C@@H]3C[C@H](F)C4=CC(=O)C=C[C@]4(C)[C@@]3(F)[C@@H](O)C[C@@]21C [FP, Fluticasone propionate]
number of DC in asthma (DC): decreased the number of DC in asthma
number of antigen-presenting ‘Langerhans’ cells in nasal mucosa [1]: decreased the number of the antigen-presenting ‘Langerhans’ cells
NF-κB activation (NF-κB): decreases NF-κB activation

CCCCCCCCCCCCCC(=O)O[C@@H]1[C@@H](C)[C@@]2(O)[C@@H](C=C(CO)C[C@]3(O)C(=O)C(C)=C[C@@H]23)[C@@H]2C(C)(C)[C@]12OC(C)=O [TPA, phorbol 12-myristate 13-acetate]
DNase-I hypersensitivity of the third intron enhancer of the TNFα gene [2]: enhanced
phosphorylation of ERK1/2 (ERK1/2): phosphorylation of ERK1/2
increase in ERK activity ([3]; 1 h): 6 fold
increase in ERK activity ([3]; 3 h): 4 fold
ML-1 proliferation ([3]; 3-day 0.3 ng/ml, then 3 days without TPA): cease proliferation
hair growth (anagen hair follicles; 6 days culture, A 23187 2 μM, TPA 1 μM, IL-1 100 ng per ml (Hoffmann 1997)): significantly inhibited hair growth
IC50 (anagen hair follicles; suspension culture (Harmon 1995), read-out: inhibition of total cumulative hair follicle growth): 1 nM
ERK phosphorylation (ERK [4]; Jurkat cells): increased ERK phosphorylation
Effect on [ERK^phos] (ERK [5]): ↑[ERK^phos]
mouse AR mRNA (AR gene [6]; Kumar 1998): increase in mouse AR mRNA
Effect on [mRNAAR] (AR gene [6]; Sertoli, 19 days old rats): ↓[mRNAAR]

Cc1occc(=O)c1[O-].Cc1occc(=O)c1[O-].[O]=[V+2] [bis(maltolato)oxovanadium]
weight gain [7]: decreased weight gain

C/C=C/C/C=C/CCC(=O)[C@H]1O[C@H]1C(N)=O [cerulenin]
virus production [8]: drastically decreased
virus production (Rous sarcoma virus (RSV)): inhibited

C[C@@H]1C[C@@H]([C@H](O)CC2CC(=O)NC(=O)C2)C(=O)[C@@H](C)C1 [cycloheximide]
AGE-alb induced TF mRNA (TF): completely suppressed
increase in AR mRNA (AR gene [9]): 1.7±0.4 fold
ERK phosphorylation (ERK [4]; oocytes): decreased ERK phosphorylation

CCOC(=O)[C@H](CCc1ccccc1)N[C@@H](C)C(=O)N1CCC[C@H]1C(=O)O [enalapril]
plasma TF antigen level (TF antigen; day 3): 205±14
plasma TF antigen level (TF antigen; day 28): 169±13
total lesion area compared to placebo (ACE [10]): no significant decrease in lesion area
changes in mean absolute diameter, minimum absolute diameter, and percent diameter stenosis (ACE [11]): no significant difference

CCCC(=O)[O-].[Na+] [sodium butyrate]
growth of LS 174T cells [12]: significant growth inhibition
increase in MT mRNA (metallothionein (MT) [13]): 2-4 fold
phosphorylation of ERK1/2 (ERK1/2): phosphorylation of ERK1/2
MT mRNA levels (metallothionein (MT) [14]; OC15 EC, OC15 END cells): increased MT mRNA levels
increase in MT mRNA (metallothionein (MT) [14]; OC15 carcinoma cells): 20 fold
MT synthesis (metallothionein (MT) [15]): dose-dependent increase

[O]=[V]([O-])([O-])[O-] [vanadate, Vanadate (VO4^−3)]
decrease in plasma glucose [16]: 36%
decrease in plasma insulin [16]: 80%
ERK activation (ERK [4]; as general PTP inhibitors): activate ERK
liver PFK-2/FBPase-2 mRNA content (PFK-2/FBPase-2): progressive increase

IL-1β: human recombinant IL-1β, an ERK agent
glucose blood levels [17]: normalization of glucose blood levels
growth of isolated scalp hair (anagen hair follicles; Xiong 1997): growth inhibition
decrease in nighttime food intake [18]: 66.1%

leptin: an ERK agent that binds the long form leptin receptor
tyrosine phosphorylation of STAT3 and ERK [19]: increased tyrosine phosphorylation of STAT3 and ERK

pervanadate
PTP1B activity (PTP1B): inhibition
